# Like-named read-outs stand apart in the source and are kept apart here.
# Key:
# Test in all cases: biochemical
# MYT1 = target: T1, MYT1 (Homo sapiens, UniProt Q99640)
# T1 sequence (Q99640 1-499): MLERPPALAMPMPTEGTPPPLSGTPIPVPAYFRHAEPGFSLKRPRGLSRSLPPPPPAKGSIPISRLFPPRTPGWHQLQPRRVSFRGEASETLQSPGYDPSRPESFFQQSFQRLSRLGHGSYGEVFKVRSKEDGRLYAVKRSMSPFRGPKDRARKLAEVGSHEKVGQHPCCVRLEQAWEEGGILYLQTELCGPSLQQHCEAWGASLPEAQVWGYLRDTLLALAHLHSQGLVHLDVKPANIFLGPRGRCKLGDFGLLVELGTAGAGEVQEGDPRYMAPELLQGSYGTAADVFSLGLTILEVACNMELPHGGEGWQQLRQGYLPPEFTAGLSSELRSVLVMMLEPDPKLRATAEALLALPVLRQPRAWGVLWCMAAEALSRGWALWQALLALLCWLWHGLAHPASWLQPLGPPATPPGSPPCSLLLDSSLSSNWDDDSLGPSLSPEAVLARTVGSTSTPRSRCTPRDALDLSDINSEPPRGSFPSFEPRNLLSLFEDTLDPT
# VRK1 = target: T2, VRK1 (Homo sapiens, UniProt Q99986)
# T2 sequence (Q99986 1-396): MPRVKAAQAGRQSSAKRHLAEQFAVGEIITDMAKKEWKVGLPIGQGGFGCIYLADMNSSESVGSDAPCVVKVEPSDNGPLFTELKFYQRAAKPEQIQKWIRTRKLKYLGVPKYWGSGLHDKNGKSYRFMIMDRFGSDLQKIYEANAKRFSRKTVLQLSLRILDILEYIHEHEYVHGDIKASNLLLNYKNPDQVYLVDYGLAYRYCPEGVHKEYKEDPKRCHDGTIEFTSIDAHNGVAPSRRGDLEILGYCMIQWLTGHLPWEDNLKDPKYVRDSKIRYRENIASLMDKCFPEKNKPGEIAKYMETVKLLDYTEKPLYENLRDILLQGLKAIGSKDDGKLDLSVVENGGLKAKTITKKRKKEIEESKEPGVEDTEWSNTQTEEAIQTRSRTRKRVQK
# DRAK1 = target: T3, DRAK1 (Homo sapiens, UniProt Q9UEE5)
# T3 sequence (Q9UEE5 1-414): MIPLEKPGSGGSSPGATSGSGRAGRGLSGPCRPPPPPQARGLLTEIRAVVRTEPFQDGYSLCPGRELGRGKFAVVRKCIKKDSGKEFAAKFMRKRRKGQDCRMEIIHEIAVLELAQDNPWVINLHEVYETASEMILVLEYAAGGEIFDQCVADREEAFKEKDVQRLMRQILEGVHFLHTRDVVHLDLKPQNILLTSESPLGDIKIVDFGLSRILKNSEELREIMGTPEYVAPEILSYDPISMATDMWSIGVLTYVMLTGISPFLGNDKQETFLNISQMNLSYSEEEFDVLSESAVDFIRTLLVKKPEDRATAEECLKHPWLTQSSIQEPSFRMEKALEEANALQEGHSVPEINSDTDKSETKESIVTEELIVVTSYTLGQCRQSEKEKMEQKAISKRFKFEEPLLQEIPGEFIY
# Erk2 = Erk2 (Homo sapiens, UniProt P28482)
# Erk2, sequence (P28482 whole entry): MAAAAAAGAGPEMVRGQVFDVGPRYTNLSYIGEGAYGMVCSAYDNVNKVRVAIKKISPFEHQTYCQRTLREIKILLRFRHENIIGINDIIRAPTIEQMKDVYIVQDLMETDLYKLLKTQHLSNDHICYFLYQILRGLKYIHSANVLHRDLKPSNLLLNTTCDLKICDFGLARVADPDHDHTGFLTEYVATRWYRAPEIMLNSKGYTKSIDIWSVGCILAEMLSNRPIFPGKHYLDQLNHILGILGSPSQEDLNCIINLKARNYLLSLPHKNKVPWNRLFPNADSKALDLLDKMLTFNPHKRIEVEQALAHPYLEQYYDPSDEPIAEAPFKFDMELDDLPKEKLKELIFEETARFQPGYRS
# PLK4 = target: T4, PLK4 (Homo sapiens, UniProt O00444)
# T4 sequence (O00444 1-970): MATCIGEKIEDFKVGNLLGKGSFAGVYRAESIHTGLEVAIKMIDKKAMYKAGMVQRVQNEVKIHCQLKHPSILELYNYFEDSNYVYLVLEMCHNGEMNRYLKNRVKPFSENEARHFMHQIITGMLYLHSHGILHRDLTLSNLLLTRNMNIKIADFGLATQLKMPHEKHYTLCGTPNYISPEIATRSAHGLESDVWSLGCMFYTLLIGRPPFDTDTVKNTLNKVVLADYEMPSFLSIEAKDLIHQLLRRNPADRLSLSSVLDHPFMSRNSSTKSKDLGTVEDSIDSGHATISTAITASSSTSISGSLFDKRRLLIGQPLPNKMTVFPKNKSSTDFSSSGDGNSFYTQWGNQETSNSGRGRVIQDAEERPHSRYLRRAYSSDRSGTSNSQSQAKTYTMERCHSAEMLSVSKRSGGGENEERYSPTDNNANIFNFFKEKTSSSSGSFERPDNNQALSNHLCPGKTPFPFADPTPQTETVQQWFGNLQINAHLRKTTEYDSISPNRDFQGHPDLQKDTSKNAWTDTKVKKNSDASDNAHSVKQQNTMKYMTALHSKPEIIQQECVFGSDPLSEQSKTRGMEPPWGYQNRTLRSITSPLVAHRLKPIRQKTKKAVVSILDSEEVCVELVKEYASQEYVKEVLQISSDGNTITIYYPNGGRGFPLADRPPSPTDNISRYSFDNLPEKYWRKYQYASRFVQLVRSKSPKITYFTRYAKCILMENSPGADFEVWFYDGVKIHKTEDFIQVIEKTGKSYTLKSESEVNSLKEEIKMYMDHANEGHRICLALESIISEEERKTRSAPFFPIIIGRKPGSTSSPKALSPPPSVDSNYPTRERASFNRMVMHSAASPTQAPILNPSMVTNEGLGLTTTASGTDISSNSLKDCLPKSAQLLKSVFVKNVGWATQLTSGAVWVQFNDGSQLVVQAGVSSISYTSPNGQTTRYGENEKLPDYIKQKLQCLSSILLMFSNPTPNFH
# MRCKa = MRCKa (Homo sapiens, UniProt Q5VT25)
# MRCKa, sequence (Q5VT25 whole entry): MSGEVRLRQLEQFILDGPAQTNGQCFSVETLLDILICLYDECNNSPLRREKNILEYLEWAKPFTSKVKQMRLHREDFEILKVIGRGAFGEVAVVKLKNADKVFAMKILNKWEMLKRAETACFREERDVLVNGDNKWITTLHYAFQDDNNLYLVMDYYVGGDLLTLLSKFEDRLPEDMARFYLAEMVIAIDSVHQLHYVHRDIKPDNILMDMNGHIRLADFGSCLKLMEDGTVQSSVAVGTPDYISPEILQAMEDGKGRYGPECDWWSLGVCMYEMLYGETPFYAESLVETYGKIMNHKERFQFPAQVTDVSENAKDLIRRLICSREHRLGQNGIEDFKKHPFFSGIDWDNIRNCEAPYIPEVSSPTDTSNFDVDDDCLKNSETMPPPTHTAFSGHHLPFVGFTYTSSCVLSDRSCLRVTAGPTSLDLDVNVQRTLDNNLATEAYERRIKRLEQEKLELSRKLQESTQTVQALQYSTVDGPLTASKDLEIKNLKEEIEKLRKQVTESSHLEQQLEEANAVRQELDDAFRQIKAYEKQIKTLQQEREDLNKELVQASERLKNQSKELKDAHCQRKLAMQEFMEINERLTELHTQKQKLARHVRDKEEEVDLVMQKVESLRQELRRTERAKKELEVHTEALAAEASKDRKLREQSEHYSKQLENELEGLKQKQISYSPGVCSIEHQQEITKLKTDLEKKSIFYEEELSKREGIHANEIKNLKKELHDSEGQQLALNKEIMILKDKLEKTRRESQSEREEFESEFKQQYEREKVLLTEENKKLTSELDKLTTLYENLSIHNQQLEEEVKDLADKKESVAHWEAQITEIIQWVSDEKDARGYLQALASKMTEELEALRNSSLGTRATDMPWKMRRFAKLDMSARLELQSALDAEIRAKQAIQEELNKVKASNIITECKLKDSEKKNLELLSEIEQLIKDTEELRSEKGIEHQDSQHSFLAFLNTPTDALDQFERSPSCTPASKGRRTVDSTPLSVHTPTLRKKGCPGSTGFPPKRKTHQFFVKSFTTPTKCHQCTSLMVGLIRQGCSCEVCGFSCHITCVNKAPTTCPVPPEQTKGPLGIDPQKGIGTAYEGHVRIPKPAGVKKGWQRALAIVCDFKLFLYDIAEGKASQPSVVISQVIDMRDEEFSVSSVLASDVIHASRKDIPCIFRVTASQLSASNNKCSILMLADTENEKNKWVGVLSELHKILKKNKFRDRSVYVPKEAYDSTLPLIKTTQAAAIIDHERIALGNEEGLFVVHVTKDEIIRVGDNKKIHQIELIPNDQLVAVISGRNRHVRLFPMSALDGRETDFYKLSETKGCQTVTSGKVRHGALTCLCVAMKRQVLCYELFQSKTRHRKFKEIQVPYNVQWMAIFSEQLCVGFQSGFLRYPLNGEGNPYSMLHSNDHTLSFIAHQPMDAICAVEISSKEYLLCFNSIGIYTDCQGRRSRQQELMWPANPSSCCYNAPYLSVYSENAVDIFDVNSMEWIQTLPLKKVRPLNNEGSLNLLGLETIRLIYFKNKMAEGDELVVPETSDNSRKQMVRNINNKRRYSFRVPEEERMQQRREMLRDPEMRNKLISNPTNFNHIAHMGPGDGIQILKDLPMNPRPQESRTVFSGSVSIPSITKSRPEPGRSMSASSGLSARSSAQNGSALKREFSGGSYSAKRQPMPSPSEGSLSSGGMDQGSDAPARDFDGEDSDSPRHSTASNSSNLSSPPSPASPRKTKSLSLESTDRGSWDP
# RSK1b = RSK1b (Homo sapiens, UniProt Q15418)
# RSK1b, sequence (Q15418 whole entry): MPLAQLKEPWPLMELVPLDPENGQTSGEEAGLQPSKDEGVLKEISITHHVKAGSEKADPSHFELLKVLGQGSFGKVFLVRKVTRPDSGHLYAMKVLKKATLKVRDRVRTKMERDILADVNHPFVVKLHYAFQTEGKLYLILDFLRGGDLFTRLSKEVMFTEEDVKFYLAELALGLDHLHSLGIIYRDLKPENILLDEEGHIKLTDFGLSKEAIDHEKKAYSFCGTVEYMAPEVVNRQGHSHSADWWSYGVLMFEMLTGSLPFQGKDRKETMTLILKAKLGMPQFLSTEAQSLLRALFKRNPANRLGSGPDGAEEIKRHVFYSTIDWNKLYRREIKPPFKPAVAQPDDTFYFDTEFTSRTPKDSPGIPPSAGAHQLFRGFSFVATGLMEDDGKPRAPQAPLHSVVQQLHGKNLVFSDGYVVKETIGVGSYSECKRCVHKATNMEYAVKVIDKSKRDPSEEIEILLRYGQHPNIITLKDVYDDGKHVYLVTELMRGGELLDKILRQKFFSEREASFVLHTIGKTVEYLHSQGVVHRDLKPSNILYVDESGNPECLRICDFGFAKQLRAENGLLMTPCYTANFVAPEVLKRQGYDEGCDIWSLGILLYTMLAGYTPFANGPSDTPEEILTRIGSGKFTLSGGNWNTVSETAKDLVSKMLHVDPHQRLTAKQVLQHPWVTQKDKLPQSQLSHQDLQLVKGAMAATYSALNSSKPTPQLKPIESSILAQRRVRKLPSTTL
# AKT3 = AKT3 (Homo sapiens, UniProt Q9Y243)
# AKT3, sequence (Q9Y243 whole entry): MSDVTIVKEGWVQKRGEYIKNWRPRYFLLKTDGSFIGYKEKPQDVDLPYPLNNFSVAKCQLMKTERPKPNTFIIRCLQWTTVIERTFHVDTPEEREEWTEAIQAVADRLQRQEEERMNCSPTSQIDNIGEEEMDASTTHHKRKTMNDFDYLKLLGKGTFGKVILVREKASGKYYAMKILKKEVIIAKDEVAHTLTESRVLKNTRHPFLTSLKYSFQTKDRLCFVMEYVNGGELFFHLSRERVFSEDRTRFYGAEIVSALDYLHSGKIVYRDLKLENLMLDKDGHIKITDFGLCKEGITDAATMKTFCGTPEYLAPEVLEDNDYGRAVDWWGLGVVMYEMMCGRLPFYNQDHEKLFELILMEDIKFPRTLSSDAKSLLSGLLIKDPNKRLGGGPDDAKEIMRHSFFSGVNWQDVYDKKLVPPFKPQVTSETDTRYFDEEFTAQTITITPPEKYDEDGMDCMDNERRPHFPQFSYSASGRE
# CHK2 = CHK2 (Homo sapiens, UniProt O96017)
# CHK2, sequence (O96017 whole entry): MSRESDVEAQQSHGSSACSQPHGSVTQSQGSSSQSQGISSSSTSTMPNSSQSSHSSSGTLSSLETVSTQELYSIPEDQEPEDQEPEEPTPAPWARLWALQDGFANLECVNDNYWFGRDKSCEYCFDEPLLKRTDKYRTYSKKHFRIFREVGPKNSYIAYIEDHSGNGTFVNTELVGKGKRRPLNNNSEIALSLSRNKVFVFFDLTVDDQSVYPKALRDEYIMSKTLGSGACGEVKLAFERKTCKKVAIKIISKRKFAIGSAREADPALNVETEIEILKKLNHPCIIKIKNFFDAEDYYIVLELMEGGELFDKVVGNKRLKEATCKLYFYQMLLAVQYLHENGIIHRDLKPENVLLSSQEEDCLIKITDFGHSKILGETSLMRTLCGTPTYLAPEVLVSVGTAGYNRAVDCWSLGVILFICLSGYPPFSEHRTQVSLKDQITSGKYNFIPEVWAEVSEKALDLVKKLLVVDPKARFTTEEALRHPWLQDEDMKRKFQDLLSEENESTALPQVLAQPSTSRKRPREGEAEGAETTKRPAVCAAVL
# GSK3B = GSK3B (Homo sapiens, UniProt P49841)
# GSK3B, sequence (P49841 whole entry): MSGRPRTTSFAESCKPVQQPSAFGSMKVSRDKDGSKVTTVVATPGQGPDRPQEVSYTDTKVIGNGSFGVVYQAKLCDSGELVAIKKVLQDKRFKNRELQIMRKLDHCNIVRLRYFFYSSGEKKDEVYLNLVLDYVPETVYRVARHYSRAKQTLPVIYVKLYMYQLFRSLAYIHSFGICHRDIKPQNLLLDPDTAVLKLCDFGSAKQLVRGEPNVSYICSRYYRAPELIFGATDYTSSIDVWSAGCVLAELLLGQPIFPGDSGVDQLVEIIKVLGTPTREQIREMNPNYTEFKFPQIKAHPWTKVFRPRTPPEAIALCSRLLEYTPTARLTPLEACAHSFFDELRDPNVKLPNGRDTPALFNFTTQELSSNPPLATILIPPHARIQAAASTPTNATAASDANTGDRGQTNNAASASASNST
smiles,measurement,setting,value
"CNc1ncc2cc(-c3cc(Cl)ccc3Br)c(=O)n(CCCCN)c2n1 [compound 10, 8-(4-Aminobutyl)-6-(2-bromo-5-chlorophenyl)-2-(methylamino)pyrido[2,3-d]pyrimidin-7(8H)-one]",ΔTm at 10 µM,MYT1; read-out: dTm 10,0.6 °C
same,ΔTm at 10 µM,VRK1; read-out: dTm 10,0.7 °C
same,ΔTm at 10 µM,DRAK1; read-out: dTm 10,-0.8 °C
same,ΔTm at 10 µM,Erk2; read-out: dTm 10,0.1 °C
same,ΔTm at 10 µM,PLK4; read-out: dTm 10,0.4 °C
same,ΔTm at 10 µM,MRCKa; read-out: dTm 10,-0.2 °C
same,ΔTm at 10 µM,RSK1b; read-out: dTm 10,6.2 °C
same,ΔTm at 10 µM,AKT3; read-out: dTm 10,-0.1 °C
same,ΔTm at 10 µM,CHK2; read-out: dTm 10,0.2 °C
same,ΔTm at 10 µM,GSK3B; read-out: dTm 10,0.8 °C
"CNc1ncc2cc(-c3cc(Cl)ccc3Cl)c(=O)n(CCCCN)c2n1 [compound 8, 8-(4-Aminobutyl)-6-(2,5-dichlorophenyl)-2-(methylamino)pyrido[2,3-d]pyrimidin-7(8H)-one]",ΔTm at 10 µM,MYT1; read-out: dTm 8,0.3 °C
same,ΔTm at 10 µM,VRK1; read-out: dTm 8,0.7 °C
same,ΔTm at 10 µM,DRAK1; read-out: dTm 8,1.1 °C
same,ΔTm at 10 µM,Erk2; read-out: dTm 8,0.1 °C
same,ΔTm at 10 µM,PLK4; read-out: dTm 8,0.5 °C
same,ΔTm at 10 µM,MRCKa; read-out: dTm 8,0 °C
same,ΔTm at 10 µM,RSK1b; read-out: dTm 8,6.9 °C
same,ΔTm at 10 µM,AKT3; read-out: dTm 8,0 °C
same,ΔTm at 10 µM,CHK2; read-out: dTm 8,0.4 °C
same,ΔTm at 10 µM,GSK3B; read-out: dTm 8,1 °C
"CNc1ncc2cc(-c3cc(C(F)(F)F)ccc3Cl)c(=O)n(CCCCN)c2n1 [compound 9, 8-(4-Aminobutyl)-6-(2-chloro-5-(trifluoromethyl)phenyl)-2-(methylamino)pyrido[2,3-d]pyrimidin-7(8H)-one]",ΔTm at 10 µM,MYT1; read-out: dTm 9,-0.2 °C
same,ΔTm at 10 µM,VRK1; read-out: dTm 9,0.1 °C
same,ΔTm at 10 µM,DRAK1; read-out: dTm 9,-1.1 °C
same,ΔTm at 10 µM,Erk2; read-out: dTm 9,0 °C
same,ΔTm at 10 µM,PLK4; read-out: dTm 9,0.3 °C
same,ΔTm at 10 µM,MRCKa; read-out: dTm 9,-0.5 °C
same,ΔTm at 10 µM,RSK1b; read-out: dTm 9,4.5 °C
same,ΔTm at 10 µM,AKT3; read-out: dTm 9,0 °C
same,ΔTm at 10 µM,CHK2; read-out: dTm 9,0.5 °C
same,ΔTm at 10 µM,GSK3B; read-out: dTm 9,0.8 °C
"CNc1ncc2cc(-c3cc(Br)ccc3Br)c(=O)n(CCCCN)c2n1 [compound 11, 8-(4-Aminobutyl)-6-(2,5-dibromophenyl)-2-(methylamino)pyrido[2,3-d]pyrimidin-7(8H)-one]",ΔTm at 10 µM,MYT1; read-out: dTm 11,-0.4 °C
same,ΔTm at 10 µM,VRK1; read-out: dTm 11,0.5 °C
same,ΔTm at 10 µM,DRAK1; read-out: dTm 11,-0.8 °C
same,ΔTm at 10 µM,Erk2; read-out: dTm 11,0.1 °C
same,ΔTm at 10 µM,PLK4; read-out: dTm 11,0.6 °C
same,ΔTm at 10 µM,MRCKa; read-out: dTm 11,-0.2 °C
same,ΔTm at 10 µM,RSK1b; read-out: dTm 11,5.8 °C
same,ΔTm at 10 µM,AKT3; read-out: dTm 11,-0.1 °C
same,ΔTm at 10 µM,CHK2; read-out: dTm 11,0.4 °C
same,ΔTm at 10 µM,GSK3B; read-out: dTm 11,0.8 °C
"CNc1ncc2cc(-c3cc(F)c(-c4cccc(C)n4)cc3F)c(=O)n(CCCCN)c2n1 [compound 12, 8-(4-Aminobutyl)-6-(2,5-difluoro-4-(6-methylpyridin-2-yl)phenyl)-2-(methylamino)pyrido[2,3-d]pyrimidin-7(8H)-one]",ΔTm at 10 µM,MYT1; read-out: dTm 12,-1.8 °C
same,ΔTm at 10 µM,VRK1; read-out: dTm 12,0.3 °C
same,ΔTm at 10 µM,DRAK1; read-out: dTm 12,0 °C
same,ΔTm at 10 µM,Erk2; read-out: dTm 12,-1.8 °C
same,ΔTm at 10 µM,PLK4; read-out: dTm 12,6.3 °C
same,ΔTm at 10 µM,MRCKa; read-out: dTm 12,-0.8 °C
same,ΔTm at 10 µM,RSK1b; read-out: dTm 12,-0.2 °C
same,ΔTm at 10 µM,AKT3; read-out: dTm 12,1.2 °C
same,ΔTm at 10 µM,CHK2; read-out: dTm 12,3.3 °C
same,ΔTm at 10 µM,GSK3B; read-out: dTm 12,1.7 °C
